Test results taken from patent publication US9861568B2, “Composition for improving skin conditions, containing chlorophyll a or pheophorbide a” (GWANGJU INSTITUTE OF SCIENCE AND TECHNOLOGY, priority 2014, dated 2018).

Columns and labels:
[1] = test system: dorsal skin of UV-irradiated SKH-1 hairless mice; test: Wrinkle evaluation of dorsal skin of UV-irradiated hairless mice (visual grade, negative replica); assay type: in vivo, mouse; details: UV 8 weeks, 5 mg/kg daily oral; for visual wrinkle grade: clinical images rated by two practitioners; for wrinkle area in replicated images: compared to the control group; for thickness of wrinkles of dorsal skin: compared with the control group
Experimental: (§1) In order to irradiate animals with UV, the minimal erythema dose (MED) of the dorsal skin of mice was examined first. Minimal erythema dose means the minimum amount of erythema that can be derived with a clear border after 24 hours of irradiation. The mice were irradiated three times a week for 8 weeks with UV. During the first 3 weeks, the dose was increased by 1 MED (herein, 1 MED=30 mJ/cm2), and then 3 MED was maintained thereafter.
(§2) Premature female SKH-1 hairless mice were purchased from Charles River Laboratories (Wilmington, Mass.) and adapted for one week. The mice were housed in air-conditioned rooms in a 12-hour light/12-hour dark cycle to allow them to eat water and food freely. The room temperature was maintained at 23±3° C. and under humidity at 55±15%. All experiments were approved by the Animal Care and Use Committee at Gwangju Institute of Science and Technology.
(§3) After the adaptation period, mice were divided into 4 groups of 6 mice per each group. Each of the groups was as follows:
(c) Group of receiving 5 mg/kg daily chlorophyll a with UV irradiation
(d) Group of receiving 5 mg/kg pheophorbide a daily with UV irradiation
(§4) Chlorophyll a (Ca, Sigma-Aldrich, St Louis, Mo., USA) or pheophorbide a (Pa, Frontier Scientific, Logan, Utah, USA) was dissolved in a solution of 40% polyethylene glycol 400 (Sigma-Aldrich, St Louis, Mo., USA), respectively. As a control, vehicle was prepared with only 40% polyethylene glycol 400 solution and administered to mice in the negative control and positive control groups. The administration of test materials was made immediately after UV irradiation.
A digital camera (Sony Cybershot DSC-W570, 5× optical zoom, 16.1 megapixels, Sony Corporation, Tokyo, Japan) was used to obtain a clinical image of the dorsal skin after continuous exposure to low dose UV. The enlarged wrinkles were obtained using DermLite®IIHybridM (3Gen, LLC, San Juan Capistrano, Calif., USA) attached to the digital camera. The wrinkles of the dorsal skin of the mice were graded according to the method described by Bissett et al.. The grades were as follows:
Grade 0—no thick wrinkles;
Grade 1—a few shallow thick wrinkles;
Grade 2—some thick wrinkles;
Grade 3—multiple deep thick wrinkles.
A negatively imprinted replica was used to analyze the wrinkles of the skin, which is described by Ryu et al.. That is, a semi-fluidic silicone polymer was mixed with a catalyst (Imprint II Garant™ Light Body, 3M) and then applied to a dorsal skin sufficiently to penetrate into the wrinkles beyond a contour. This replica was analyzed under standard illumination with an incident angle where the replica was formed and set to produce a reflective shadow proportional to the height of the wrinkles. The captured images were analyzed from a shadow region in the images using image analysis software (ImageJ software, NIH Image, National Institutes of Health, Bethesda, Md., USA; online at: http://rsb.info.nih.gov/ij/).

[2] = test system: intercellular adhesion molecule-1 (ICAM-1); test: Immunohistochemical staining for ICAM-1 in dorsal skin of UV-irradiated mice; assay type: in vivo, mouse; details: 5 mg/kg daily oral, compared with the UV-only-irradiated group
Experimental: as §1, §2, §3
as §4, with “The administration of test materials was made immediately after UV irradiation.” left out

[3] = test system: dorsal skin of UV-irradiated SKH-1 hairless mice; test: Histological examination of dorsal skin of UV-irradiated mice (H&E, Masson-trichrome); assay type: in vivo, mouse; details: 5 mg/kg daily oral; for collagen breakdown in the dermis / infiltration of inflammatory cells in the epidermis and upper dermis: compared with the control group; for infiltration of inflammatory cells in the epidermis and upper dermis: H&E stain; for thickness of the epidermis: Masson-trichrome staining
Experimental: as §1, §2, §3, §4
Tissue samples taken from the dorsal skin of UV-irradiated mice were fixed in 4% paraformaldehyde and then included in paraffin. Thin sections with a thickness of 4 μm were stained with hematoxylin and eosin solution. To visualize collagen deposition, the sections were stained with Accustain trichrome stain (Sigma-Aldrich, St. Louis, Mo., USA). The epidermal thickness from a junction of the granular keratocytes to a junction of the dermis-epidermis was measured using an i-Solution DT image acquisition and analysis program (IMT 20 i-solution, Vancouver, Canada) and a Leica microscope (Leica, Wetzlar, Germany). To assess the thickness of the epidermis, any of the ten sites on the slide were measured. In […], inflammatory cells from epidermis to subcutaneous fat layer were calculated.

[4] = test system: extracellular signal-regulated kinase (Erk); test: Western blotting of phosphorylated Erk in UV-irradiated hDF cells; assay type: cell-based, human; details: 20 μM and 50 μM, 2 hours in the absence of light
Experimental: (§5) The primary human dermal fibroblast (hDF) cell line was obtained from Chonnam National University Medical School (Gwangju, Republic of Korea). The cells were cultured at 37° C. and under 5% CO2 using Dulbecco's Modified Eagle's Medium (DMEM, Gibco Laboratories, Grand Island, N.Y., USA) supplemented with 5% fetal bovine serum (Gibco Laboratories, Grand Island, N.Y., USA) and 1% penicillin (100 units/ml)/streptomycin ([…]).
(§6) Philips TL 20W/12 RS fluorescent sun lamp with emission spectra of 280 nm and 380 nm was used as an UV source. The UV intensity at the skin surface was measured using a UV detector (GUVx-T1xGS5-LA2, Genicom Daejeon, Korea). The UV irradiation intensity was 1.0 mW/cm2 at 30 cm from the UV source. The cells were cultured up to 75-80% of culture dish, washed twice with PBS buffer, and irradiated with UV to treat test materials. Thereafter, the cells were continuously cultured in the absence of light until the next analysis. […]

[5] = test system: MMP-1; test: Western blotting of MMP-1 protein in UV-irradiated hDF cells; assay type: cell-based, human; details: various concentrations
Experimental: as §5, §6

[6] = test system: MMP-3; test: Western blotting of MMP-3 protein in UV-irradiated hDF cells; assay type: cell-based, human; details: various concentrations
Experimental: as §5, §6

[7] = test system: human dermal fibroblast (hDF) cells; test: Cell viability assay (water soluble tetrazolium) in UV-irradiated hDF cells; assay type: cell-based; details: UV 20 mJ/cm2, 0, 10, 20, 50 μM, 72 hours in the absence of light
Experimental: as §5
(§7) Philips TL 20W/12 RS fluorescent sun lamp with emission spectra of 280 nm and 380 nm was used as an UV source. The UV intensity at the skin surface was measured using a UV detector (GUVx-T1xGS5-LA2, Genicom Daejeon, Korea). The UV irradiation intensity was 1.0 mW/cm2 at 30 cm from the UV source. The cells were cultured up to 75-80% of culture dish, washed twice with PBS buffer, and irradiated with UV to treat test materials. Thereafter, the cells were continuously cultured in the absence of light until the next analysis.
A water soluble tetrazolium test method was used for cell viability analysis. Quantification of living cells was performed using a […] Ez-cytox Cell Viability Assay Kit (Daeil Lab Co, Seoul, Korea). The formazan dye was analyzed spectrophotometrically by measuring the absorbance at 450 nm using a Chameleon multi-label plate reader (Hidex Personal Life Science, Hidex Oy, Finland). […]

[8] = test system: c-Jun N-terminal kinase (JNK); test: Western blotting of phosphorylated JNK and JNK in UV-irradiated hDF cells; assay type: cell-based, human
Experimental: as §5, §7
The total protein extracts from the samples were dissolved in lysis buffer (50 mM Tris (pH 7.4), 150 mM NaCl, 1 mM EGTA, 1% NP-40, 0.25% sodium deoxycholate, 1 mM PMSF, and phosphatase inhibitor mixture (Sigma, St. Louis, Mo., USA) and then boiled for 5 minutes. The dissolved proteins were quantitated using Bio-Rad Protein Assay Dye Reagent Concentrate (Bio-Rad Laboratories, Hercules, Calif., USA) and then separated by SDS-PAGE and transferred to a polyvinylidene difluoride (PVDF) membrane (Amersham Pharmacia Biotech, Piscataway, N.J., USA). Membranes were reacted with specific primary antibodies overnight at 4° C., and protein bands were then visualized using secondary antibodies coupled with horseradish peroxidase (HRP) and a chemiluminescence detection kit (Amersham Pharmacia Biotech). […]

[9] = test system: MMP-1; test: Real-time RT-PCR of MMP-1 mRNA in UV-irradiated hDF cells; assay type: cell-based, human; details: cultured 24 hours, relative to GAPDH
Experimental: as §5, §7
(§8) Total RNA was isolated using a Trizol reagent (Invitrogen, Carlsbad, Calif., USA) according to the manufacturer's instructions. […] For the detection of fluorescence during the PCR amplification, SYBR Premix Ex Taq (Takara Bio, Otsu, Japan) was used. […]
(§9) In addition, UV was irradiated, the test materials were treated, cultured for 24 hours, and then the mRNA level of MMPs was analyzed using a real time RT PCR method. […]

[10] = test system: MMP-3; test: Real-time RT-PCR of MMP-3 mRNA in UV-irradiated hDF cells; assay type: cell-based, human; details: cultured 24 hours, relative to GAPDH
Experimental: as §5, §7, §8, §9

Molecule	visual wrinkle grade [1]	wrinkle area in replicated images [1]	thickness of wrinkles of dorsal skin [1]	level of ICAM-1 expression in the epidermis and upper dermis [2]	collagen breakdown in the dermis [3]	infiltration of inflammatory cells in the epidermis and upper dermis [3]	thickness of the epidermis [3]	expression level of phosphorylated Erk [4]	MMP-1 protein expression level [5]	MMP-3 protein expression level [6]	cell viability [7]	MAPK phosphorylation inhibition ([8]; 10 μM, 2 hours)	expression level of phosphorylated JNK ([8]; 20 μM and 50 μM, 2 hours in the absence of light)	basal JNK protein level ([8]; 2 hours in the absence of light)	MMP-1 mRNA level [9]	MMP-3 mRNA level [10]
C=Cc1c(C)c2cc3nc(c4c5[n-]c(cc6nc(cc1[n-]2)C(C)=C6CC)c(C)c5C(=O)[C@@H]4C(=O)OC)[C@@H](CCC(=O)OC/C=C(\C)CCC[C@H](C)CCC[C@H](C)CCCC(C)C)[C@@H]3C.[Mg+2] [chlorophyll a]	wrinkles grades were lower	a decrease in the wrinkle area	remarkably reduced	decreased	less collagen breakdown occurred	reduced	A decrease in thickness									
pheophorbide a	wrinkles grades were lower	a decrease in the wrinkle area	remarkably reduced	decreased	less collagen breakdown occurred	reduced	A decrease in thickness	decreased	decreased in proportion to the amount treated	decreased in proportion to the amount treated	not affected	not as much as 20 μM and 50 μM	decreased	decreased in proportion to the amount of pheophorbide a	significant decrease	significant decrease
